Measured values taken from PubChem BioAssay AID1259407 (Chemical Carcinogenesis Research Information System (CCRIS), 2018).
The source made the active and inactive calls. How the calls were made is not given here.

System: CCRIS mutagenicity, Ames/micronucleus/aberration tests
Assay: CCRIS mutagenicity studies
[1] = Test System: AMES SALMONELLA TYPHIMURIUM, Strain/Indicator: TA98, Metabolic Activation: NONE, Method: PREINCUBATION
[2] = Test System: AMES SALMONELLA TYPHIMURIUM, Strain/Indicator: TA100, Metabolic Activation: NONE, Method: PREINCUBATION
[3] = Test System: AMES SALMONELLA TYPHIMURIUM, Strain/Indicator: TA1535, Metabolic Activation: NONE, Method: PREINCUBATION
[4] = Test System: AMES SALMONELLA TYPHIMURIUM, Strain/Indicator: TA1537, Metabolic Activation: NONE, Method: PREINCUBATION
[5] = Test System: MOUSE LYMPHOMA, Strain/Indicator: L5178Y (TK+/TK-), Metabolic Activation: NONE, Method: SUSPENSION/PLATE
[6] = Test System: AMES SALMONELLA TYPHIMURIUM, Strain/Indicator: TA100, Metabolic Activation: NONE, Method: STANDARD PLATE
[7] = Test System: AMES SALMONELLA TYPHIMURIUM, Strain/Indicator: TA97, Metabolic Activation: HAMSTER, LIVER, S-9, AROCLOR 1254 (10 OR 30%), Method: PREINCUBATION
[8] = Test System: AMES SALMONELLA TYPHIMURIUM, Strain/Indicator: TA97, Metabolic Activation: NONE, Method: PREINCUBATION
[9] = Test System: AMES SALMONELLA TYPHIMURIUM, Strain/Indicator: TA97, Metabolic Activation: RAT, LIVER, S-9, AROCLOR 1254 (10 OR 30%), Method: PREINCUBATION
[10] = Test System: AMES SALMONELLA TYPHIMURIUM, Strain/Indicator: TA98, Metabolic Activation: HAMSTER, LIVER, S-9, AROCLOR 1254 (10 OR 30%), Method: PREINCUBATION
[11] = Test System: AMES SALMONELLA TYPHIMURIUM, Strain/Indicator: TA98, Metabolic Activation: RAT, LIVER, S-9, AROCLOR 1254 (10 OR 30%), Method: PREINCUBATION
[12] = Test System: AMES SALMONELLA TYPHIMURIUM, Strain/Indicator: TA100, Metabolic Activation: HAMSTER, LIVER, S-9, AROCLOR 1254 (10 OR 30%), Method: PREINCUBATION
[13] = Test System: AMES SALMONELLA TYPHIMURIUM, Strain/Indicator: TA100, Metabolic Activation: RAT, LIVER, S-9, AROCLOR 1254 (10 OR 30%), Method: PREINCUBATION
[14] = Test System: AMES SALMONELLA TYPHIMURIUM, Strain/Indicator: TA1535, Metabolic Activation: HAMSTER, LIVER, S-9, AROCLOR 1254 (10 OR 30%), Method: PREINCUBATION
[15] = Test System: AMES SALMONELLA TYPHIMURIUM, Strain/Indicator: TA1535, Metabolic Activation: RAT, LIVER, S-9, AROCLOR 1254 (10 OR 30%), Method: PREINCUBATION

SMILES	mutagenic call [1]	mutagenic call [2]	mutagenic call [3]	mutagenic call [4]	mutagenic call [5]	mutagenic call [6]	mutagenic call [7]	mutagenic call [8]	mutagenic call [9]	mutagenic call [10]	mutagenic call [11]	mutagenic call [12]	mutagenic call [13]	mutagenic call [14]	mutagenic call [15]	further results
c1cc(OCC2CO2)cc(OCC2CO2)c1 (stereo unspecified)	inactive; negative	active; positive	active; positive	inactive; negative	active; positive											mutagenic call (End Point: IN VITRO CHROMOSOMAL ABERRATIONS, Test System: CHO CELLS, Metabolic Activation: NONE): active; positive; mutagenic call (End Point: IN VITRO CHROMOSOMAL ABERRATIONS, Test System: CHO CELLS, Metabolic Activation: RAT, LIVER, S-9, AROCLOR 1254): active; positive; weak response; mutagenic call (Test System: AMES SALMONELLA TYPHIMURIUM, Strain/Indicator: TA98, Metabolic Activation: HAMSTER, LIVER, S-9, AROCLOR 1254, Method: PREINCUBATION): inactive; negative; mutagenic call (Test System: AMES SALMONELLA TYPHIMURIUM, Strain/Indicator: TA98, Metabolic Activation: RAT, LIVER, S-9, AROCLOR 1254, Method: PREINCUBATION): inactive; negative; mutagenic call (Test System: AMES SALMONELLA TYPHIMURIUM, Strain/Indicator: TA100, Metabolic Activation: HAMSTER, LIVER, S-9, AROCLOR 1254, Method: PREINCUBATION): active; positive; mutagenic call (Test System: AMES SALMONELLA TYPHIMURIUM, Strain/Indicator: TA100, Metabolic Activation: RAT, LIVER, S-9, AROCLOR 1254 (10%), Method: PREINCUBATION): active; positive; mutagenic call (Test System: AMES SALMONELLA TYPHIMURIUM, Strain/Indicator: TA100, Metabolic Activation: RAT, LIVER, S-9, AROCLOR 1254, Method: PREINCUBATION): active; positive; mutagenic call (Test System: AMES SALMONELLA TYPHIMURIUM, Strain/Indicator: TA1535, Metabolic Activation: HAMSTER, LIVER, S-9, AROCLOR 1254 (10%), Method: PREINCUBATION): active; positive; mutagenic call (Test System: AMES SALMONELLA TYPHIMURIUM, Strain/Indicator: TA1535, Metabolic Activation: HAMSTER, LIVER, S-9, AROCLOR 1254, Method: PREINCUBATION): active; positive; mutagenic call (Test System: AMES SALMONELLA TYPHIMURIUM, Strain/Indicator: TA1535, Metabolic Activation: RAT, LIVER, S-9, AROCLOR 1254 (10%), Method: PREINCUBATION): active; positive; mutagenic call (Test System: AMES SALMONELLA TYPHIMURIUM, Strain/Indicator: TA1535, Metabolic Activation: RAT, LIVER, S-9, AROCLOR 1254, Method: PREINCUBATION): active; positive; mutagenic call (Test System: AMES SALMONELLA TYPHIMURIUM, Strain/Indicator: TA1537, Metabolic Activation: HAMSTER, LIVER, S-9, AROCLOR 1254, Method: PREINCUBATION): inactive; negative; mutagenic call (Test System: AMES SALMONELLA TYPHIMURIUM, Strain/Indicator: TA1537, Metabolic Activation: RAT, LIVER, S-9, AROCLOR 1254, Method: PREINCUBATION): inactive; negative; mutagenic call (Test System: MOUSE LYMPHOMA, Strain/Indicator: L5178Y (HPRT), Metabolic Activation: NONE, Method: SUSPENSION/PLATE): inactive; negative
CC1=C(Cl)C(=O)OC1O (stereo unspecified)						active; positive										mutagenic call (Test System: Ames Salmonella typhimurium, Strain/Indicator: TA100, Metabolic Activation: None, Method: Plate incorporation): active; positive; mutagenic call (Test System: Ames Salmonella typhimurium, Strain/Indicator: TA104, Metabolic Activation: None, Method: Plate incorporation): active; positive; mutagenic call (Test System: UDS RAT HEPATOCYTES, Strain/Indicator: THYMIDINE INCORPORATION, Metabolic Activation: NONE, Method: AUTORADIOGRAPHY): active; positive
Nc1cc(Cl)cc(S(=O)(=O)O)c1O	inactive; negative	inactive; negative	inactive; negative				inactive; negative	inactive; negative	inactive; negative	inactive; negative	inactive; negative	inactive; negative	inactive; negative	inactive; negative	inactive; negative	
COC(=O)NC(=S)Nc1ccccc1NC(=S)NC(=O)OC	inactive; negative	inactive; negative	inactive; negative	inactive; negative			inactive; negative	inactive; negative	inactive; negative	inactive; negative	inactive; negative	inactive; negative	inactive; negative	inactive; negative	inactive; negative	mutagenic call (Test System: AMES SALMONELLA TYPHIMURIUM, Strain/Indicator: TA98, Metabolic Activation: HAMSTER, LIVER, S-9, AROCLOR 1254 (30%), Method: PREINCUBATION): active; positive; mutagenic call (Test System: AMES SALMONELLA TYPHIMURIUM, Strain/Indicator: TA98, Metabolic Activation: RAT, LIVER, S-9, AROCLOR 1254 (30%), Method: PREINCUBATION): inactive; negative; mutagenic call (Test System: AMES SALMONELLA TYPHIMURIUM, Strain/Indicator: TA100, Metabolic Activation: HAMSTER, LIVER, S-9, AROCLOR 1254 (30%), Method: PREINCUBATION): active; positive; mutagenic call (Test System: AMES SALMONELLA TYPHIMURIUM, Strain/Indicator: TA1537, Metabolic Activation: HAMSTER, LIVER, S-9, AROCLOR 1254 (30%), Method: PREINCUBATION): inactive; negative; mutagenic call (Test System: AMES SALMONELLA TYPHIMURIUM, Strain/Indicator: TA1537, Metabolic Activation: RAT, LIVER, S-9, AROCLOR 1254 (30%), Method: PREINCUBATION): inactive; negative
O=CC(=O)c1ccccc1	inactive; negative	active; positive			active; positive	active; positive										mutagenic call (Test System: AMES SALMONELLA TYPHIMURIUM, Strain/Indicator: TA98, Metabolic Activation: HAMSTER, LIVER, S-9, AROCLOR 1254, Method: STANDARD PLATE): active; positive; mutagenic call (Test System: AMES SALMONELLA TYPHIMURIUM, Strain/Indicator: TA98, Metabolic Activation: NONE, Method: STANDARD PLATE): active; positive; mutagenic call (Test System: AMES SALMONELLA TYPHIMURIUM, Strain/Indicator: TA98, Metabolic Activation: RAT, LIVER, S-9, AROCLOR 1254, Method: STANDARD PLATE): active; positive; mutagenic call (Test System: AMES SALMONELLA TYPHIMURIUM, Strain/Indicator: TA98, Metabolic Activation: RAT, LIVER, S-9, PCB, Method: PREINCUBATION): inactive; negative; mutagenic call (Test System: AMES SALMONELLA TYPHIMURIUM, Strain/Indicator: TA100, Metabolic Activation: HAMSTER, LIVER, S-9, AROCLOR 1254, Method: STANDARD PLATE): active; positive; mutagenic call (Test System: AMES SALMONELLA TYPHIMURIUM, Strain/Indicator: TA100, Metabolic Activation: RAT, LIVER, S-9, AROCLOR 1254, Method: STANDARD PLATE): active; positive; mutagenic call (Test System: AMES SALMONELLA TYPHIMURIUM, Strain/Indicator: TA100, Metabolic Activation: RAT, LIVER, S-9, PCB, Method: PREINCUBATION): inactive; negative; mutagenic call (Test System: Mouse lymphoma, Strain/Indicator: L5178Y (tk+/tk-), Metabolic Activation: None, Method: Suspension/plate): active; positive; mutagenic call (Test System: Mouse lymphoma, Strain/Indicator: L5178Y (tk+/tk-), Metabolic Activation: Rat, Liver, S-9, Aroclor 1254, Method: Suspension/plate): inactive; negative
